Where only a bound is given, the exact number is not on record here.

From patent publication US20130310379A1, “MODULATORS OF METHYL MODIFYING ENZYMES, COMPOSITIONS AND USES THEREOF” (CONSTELLATION PHARMACEUTICALS, priority 2010, published 2013) come the findings set out here.

This assay deals with EZH2 (Homo sapiens, UniProt Q15910). In words: EZH2 assay: rPRC2 with biotinylated oligonucleosome substrates and 3H SAM, FlashPlate scintillation counting, IC50. The format is biochemical. To be noted: rPRC2, biotinylated oligonucleosome substrates, 3H SAM; read-out: EZH2 IC50. In outline: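 IC50 from 4-parameter fit, baselines fixed at 0 and 100%. Compounds (top 80 uM, 2-fold series to 0.16 uM) pre-incubated 20 min with 2 nM EZH2-PRC2; 60-min methylation in pH 8.5 Tris with 0.2 uM 3H SAM, 0.2 uM oligonucleosomes, 3.6 uM H3K27me3 peptide.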
EZH2, sequence (Q15910 whole entry): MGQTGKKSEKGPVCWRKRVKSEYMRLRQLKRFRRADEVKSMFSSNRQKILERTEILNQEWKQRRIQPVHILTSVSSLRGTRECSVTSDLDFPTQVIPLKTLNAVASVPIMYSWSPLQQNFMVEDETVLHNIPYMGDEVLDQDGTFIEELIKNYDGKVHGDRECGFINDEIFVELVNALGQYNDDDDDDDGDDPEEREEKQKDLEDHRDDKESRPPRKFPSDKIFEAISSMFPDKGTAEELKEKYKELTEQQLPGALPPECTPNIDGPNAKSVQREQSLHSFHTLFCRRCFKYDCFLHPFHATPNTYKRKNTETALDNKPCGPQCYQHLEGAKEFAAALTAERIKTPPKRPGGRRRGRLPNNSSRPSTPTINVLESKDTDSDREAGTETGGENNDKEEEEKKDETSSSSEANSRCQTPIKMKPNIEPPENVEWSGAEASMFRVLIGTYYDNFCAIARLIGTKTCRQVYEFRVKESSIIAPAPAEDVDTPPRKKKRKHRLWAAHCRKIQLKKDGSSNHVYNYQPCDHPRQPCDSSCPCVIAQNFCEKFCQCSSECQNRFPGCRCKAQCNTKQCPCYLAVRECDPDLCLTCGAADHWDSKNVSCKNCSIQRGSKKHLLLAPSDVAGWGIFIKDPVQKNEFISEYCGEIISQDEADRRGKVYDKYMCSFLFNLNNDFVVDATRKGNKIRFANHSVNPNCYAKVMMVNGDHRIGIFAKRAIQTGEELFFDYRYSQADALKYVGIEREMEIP
EZH2, sequence (O75530 whole entry partner): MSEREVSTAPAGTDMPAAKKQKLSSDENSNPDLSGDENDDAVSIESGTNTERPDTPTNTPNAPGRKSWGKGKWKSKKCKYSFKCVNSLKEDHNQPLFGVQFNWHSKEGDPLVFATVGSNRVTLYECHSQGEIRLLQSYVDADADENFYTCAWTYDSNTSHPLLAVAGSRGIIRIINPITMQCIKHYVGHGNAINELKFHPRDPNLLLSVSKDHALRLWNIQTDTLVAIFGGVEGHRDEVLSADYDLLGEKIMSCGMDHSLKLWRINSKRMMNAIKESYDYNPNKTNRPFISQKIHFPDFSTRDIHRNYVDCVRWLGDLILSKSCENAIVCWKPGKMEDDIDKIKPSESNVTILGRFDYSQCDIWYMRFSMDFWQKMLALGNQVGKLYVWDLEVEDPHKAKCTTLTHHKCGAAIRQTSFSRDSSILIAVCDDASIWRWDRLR
EZH2, sequence (Q15022 whole entry partner): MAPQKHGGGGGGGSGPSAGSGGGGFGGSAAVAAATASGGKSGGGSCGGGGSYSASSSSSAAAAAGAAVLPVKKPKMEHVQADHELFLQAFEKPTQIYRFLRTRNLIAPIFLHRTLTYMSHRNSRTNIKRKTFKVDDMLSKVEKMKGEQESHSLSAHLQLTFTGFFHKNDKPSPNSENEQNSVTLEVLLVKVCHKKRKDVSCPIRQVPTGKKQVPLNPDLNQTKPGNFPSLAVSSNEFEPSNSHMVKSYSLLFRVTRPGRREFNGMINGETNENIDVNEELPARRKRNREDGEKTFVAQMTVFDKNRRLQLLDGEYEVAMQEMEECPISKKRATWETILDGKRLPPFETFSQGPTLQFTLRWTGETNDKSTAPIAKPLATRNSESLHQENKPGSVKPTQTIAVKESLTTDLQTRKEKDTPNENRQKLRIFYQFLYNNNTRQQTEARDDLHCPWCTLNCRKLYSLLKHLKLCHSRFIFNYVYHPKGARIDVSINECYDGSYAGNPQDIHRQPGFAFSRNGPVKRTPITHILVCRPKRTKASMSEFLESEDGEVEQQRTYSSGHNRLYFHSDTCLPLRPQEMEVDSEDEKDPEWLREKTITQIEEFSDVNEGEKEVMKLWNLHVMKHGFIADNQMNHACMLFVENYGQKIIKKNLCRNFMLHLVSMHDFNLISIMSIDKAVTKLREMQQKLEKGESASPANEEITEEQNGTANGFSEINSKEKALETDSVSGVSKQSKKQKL
One may read the IC50 as the midpoint of a concentration-inhibition curve. For the compound `N#Cc1c(Oc2ccc(C(=O)NC3CCNCC3C#N)cc2Cl)cccc1-c1ccnnc1` (stereo not drawn) [Compound I-329], the IC50 is greater than 80 µM. Take `CC1(C)CC(NC(=O)c2ccc(Oc3cccc4cccnc34)cc2)CC(C)(C)N1` [Compound I-331]: the IC50 was 20 to 80 µM.

As to `Cc1cc(C(=O)NC2CC(C)(C)NC(C)(C)C2)ccc1Oc1ccccc1C(C)C` [Compound I-332], the IC50 lay within 5 to 20 µM. In the case of `Cc1cc(C(=O)NC2CC(C)(C)NC(C)(C)C2)cc(C)c1Oc1ccccc1C#N` [Compound I-335] it was 20 to 80 µM. The value for `Cn1cc(-c2cccc(Oc3ccc(C(=O)NC4CC(C)(C)NC(C)(C)C4)cc3Cl)c2C#N)cn1` [Compound I-336] was less than 5 µM. The value for `CC1(C)CC(NC(=O)c2ccc(Oc3cccc(-c4ccc[nH]4)c3C#N)c(Cl)c2)CC(C)(C)N1` [Compound I-337] was less than 5 µM. On to `CC1(C)CC(NC(=O)c2ccc(Oc3cccc(-c4ccn[nH]4)c3C#N)c(Cl)c2)CC(C)(C)N1` [Compound I-338], for which the IC50 is less than 5 µM.

Consider `CCN(C(=O)c1ccc(Oc2ccccc2C#N)c(Cl)c1)C1CC(C)(C)NC(C)(C)C1` [Compound I-341], for which the IC50 is greater than 80 µM. The value for `Cc1cc(C(=O)NC2CC(C)(C)NC(C)(C)C2)ccc1Oc1cccc(CC#N)c1` [Compound I-345] was less than 5 µM; that for `CC1(C)CC(NC(=O)c2ccc(Oc3cccc4cccnc34)c(Cl)c2)CC(C)(C)N1` [Compound I-346] was 5 to 20 µM; that for `CNc1cccc(Oc2ccc(C(=O)NC3CC(C)(C)NC(C)(C)C3)cc2Cl)c1C#N` [Compound I-348] was less than 5 µM. In the case of `CC1(C)CC(NC(=O)c2ccc(Oc3ccncc3C#N)c(Cl)c2)CC(C)(C)N1` [Compound I-349] it was 5 to 20 µM; in that of `CC1(C)CC(NC(=O)c2ccc(Oc3cccc4cnc(N)cc34)cc2)CC(C)(C)N1` [Compound I-350], 5 to 20 µM; in that of `CC1(C)CC(NC(=O)c2cc(F)c(Oc3ccccc3C#N)c(Br)c2)CC(C)(C)N1` [Compound I-351], less than 5 µM.

Turning to `Cc1ncccc1-c1cccc(Oc2ccc(C(=O)NC3CC(C)(C)NC(C)(C)C3)cc2Cl)c1C#N` [Compound I-352], the half-inhibitory concentration (IC50) was less than 5 µM. In the case of `CC1(C)CC(NC(=O)c2ccc(Oc3ccccc3C(=O)O)c(Cl)c2)CC(C)(C)N1` [Compound I-353] it was greater than 80 µM; in that of `CC1(C)CC(NC(=O)c2ccc(Oc3cccc(C(=O)O)c3)c(Cl)c2)CC(C)(C)N1` [Compound I-354], greater than 80 µM. In the case of `CC1(C)CC(NC(=O)c2ccc([S+]([O-])c3ccccc3)cc2)CC(C)(C)N1` (stereo not drawn) [Compound I-355] it was greater than 80 µM; in that of `CC1(C)CC(NC(=O)c2ccc(S(=O)(=O)c3ccccc3)cc2)CC(C)(C)N1` [Compound I-357], greater than 80 µM; in that of `CC1(C)CC(NC(=O)c2ccc(Oc3ccc(F)cc3C#N)c(Cl)c2)CC(C)(C)N1` [Compound I-359], 5 to 20 µM. The value for `Cc1cncc(-c2cccc(Oc3ccc(C(=O)NC4CC(C)(C)NC(C)(C)C4)cc3Cl)c2C#N)c1` [Compound I-360] was less than 5 µM.

`CC1(C)CC(NC(=O)c2ccc(Oc3cccc(-c4cccnc4N)c3C#N)c(Cl)c2)CC(C)(C)N1` [Compound I-361]: the IC50 fell in the range of 5 to 20 µM. The value for `Cn1cc(-c2ccccc2Oc2ccc(C(=O)NC3CC(C)(C)NC(C)(C)C3)cc2Cl)nn1` [Compound I-363] was less than 5 µM; that for `Cc1ccncc1-c1cccc(Oc2ccc(C(=O)NC3CC(C)(C)NC(C)(C)C3)cc2Cl)c1C#N` [Compound I-365] was less than 5 µM. The value for `COc1ccc(-c2cccc(Oc3ccc(C(=O)NC4CC(C)(C)NC(C)(C)C4)cc3Cl)c2C#N)cn1` [Compound I-366] was less than 5 µM; that for `N#Cc1ccccc1Oc1ccc(C(=O)NC2CCN(c3cccnc3)CC2)cc1Cl` [Compound I-368] was greater than 80 µM. In the case of `CC1(C)CC(NC(=O)c2ccc(Oc3cccc4c[nH]c(=O)cc34)cc2)CC(C)(C)N1` [Compound I-370] it was 20 to 80 µM.
